Test results: paper PMC11579541, “In vitro, in vivo, and in silico approaches for evaluating the preclinical DMPK profiles of ammoxetine, a novel chiral serotonin and norepinephrine reuptake inhibitor” (Frontiers in Pharmacology, 2024)
Where two headings read alike, the source gives them in different places.

Assay: PK studies in beagle dogs
Assay type: in vivo
Settings: for AUC(0-inf) / AUC(0-t) / MRT last / MRT inf / Tmax / half-life / Cmax / CL/F / Vd/F: beagle; for MRT last: read-out: MRT(0-t); for MRT inf: read-out: MRT(0-∞); for half-life: read-out: t1/2z (converted); for CL/F: read-out: CLz/F (converted); for Vd/F: read-out: Vz/F
Method: For the PK studies in rats and dogs, a total of 18 SD rats and 15 male beagle dogs were randomly divided into three groups, with six rats or five dogs per group, respectively. Prior to the experiments, all animals underwent a 12-h fasting period, while having free access to water. The animals were administered single oral doses of ammoxetine in three different dose levels: 8 mg/kg, 20 mg/kg, and 50 mg/kg for rats, and 2 mg/kg, 5 mg/kg, and 12.5 mg/kg for dogs, representing low, medium, and high doses. Serial blood samples were collected from the rats at 0, 2, 5, 15, and 30 min, as well as 1, 2, 4, 6, 8, 12, and 24 h post-dosing. For the dogs, blood samples were collected at 0, 5, 15, 30, and 45 min, as well as 1, 2, 4, 6, 8, 12, and 24 h post-dosing. Approximately 0.3 mL of blood was collected from the rats, while 2 mL of blood was collected from the dogs. The blood samples were collected into heparinized tubes. Following centrifugation, plasma samples were obtained and stored at −30°C until further analysis.
For the absolute bioavailability (F, %) study in dogs, the dogs initially received a single gastric gavage of a low dose (2 mg/kg) of ammoxetine, followed by a 1-week washout period. After the washout, the same dose of ammoxetine was administered intravenously (i.v.). To assess the effects of nonfasting on ammoxetine PK, dogs that received a medium dose (5 mg/kg) of ammoxetine via gastric gavage underwent a radical washout period of 1 week. Subsequently, they were administered the same dose of ammoxetine via gastric gavage under nonfasting conditions. To compare sex differences in ammoxetine PK, an additional five female beagle dogs were administered a medium dose (5 mg/kg) of ammoxetine via gastric gavage after a 12-h overnight fast. Blood samples (2 mL) were collected from these dogs into heparinized tubes at predose and at specified time points: 5, 15, 30, and 45 min, as well as 1, 2, 4, 6, 8, 12, and 24 h postdose. For the repeat-dose study, after completing blood collection during the initial administration, dogs receiving a single gastric gavage of a medium dose (5 mg/kg) of ammoxetine under fasting conditions were subsequently orally dosed with seven repeat doses of ammoxetine (5 mg/kg) every 12 h. Trough blood samples were collected before the fourth to last administration to ensure steady-state blood concentrations (C ss ) were achieved. Approximately 2 mL of blood was collected at specified time points after the last dose and transferred into heparinized tubes. All blood samples were then centrifuged at 4,000 r/min for 20 min to obtain plasma samples, which were stored at −30°C until analysis.
To determine the concentration of ammoxetine, 100 μL of L-phencynonate (IS, 50 ng/mL) and 300 μL of methanol were added to 100 μL of plasma samples from rats or dogs. After thorough vortexing, the mixture was centrifuged at 13,800×g for 10 min. The supernatants were then subjected to analysis using LC-MS-MS methods. PK parameters were calculated using DAS (Drug And Statistics for Windows) version 2.0, developed by the Shanghai University of Traditional Chinese Medicine, Shanghai, China. The F was determined by comparing the plasma area under the concentration-time curve (AUC) values after oral (p.o.) and intravenous (i.v.) administration of ammoxetine. F was calculated using the formula: F=AUCp.o./AUCi.v.×100% . Statistical analyses were performed using OriginPro 8.6 software. Paired sample or student’s t-test, as well as one-way ANOVA, were employed to compare the means of two or three groups, with a significance level set at p < 0.05.

[1] = beagle dogs, 2 mg/kg p.o. vs i.v.
[2] = beagle dogs, 5 mg/kg oral every 12 h, last time of multiple administrations
[3] = dog, plasma, po, 5 mg/kg, beagle dogs, 5 mg/kg oral every 12 h, last time of multiple administrations
[4] = female, dog, plasma, po, 5 mg/kg, female beagle dogs, 5 mg/kg oral, fasted
[5] = male, dog, plasma, iv, 2 mg/kg, beagle dogs, 2 mg/kg intravenous administration
[6] = male, dog, plasma, po, 2 mg/kg, beagle dogs, 2 mg/kg single oral dose
[7] = male, dog, plasma, po, 5 mg/kg, beagle dogs, 5 mg/kg oral every 12 h, last time of multiple administrations
[8] = male, dog, plasma, po, 5 mg/kg, beagle dogs, 5 mg/kg oral, fed (nonfasting)
[9] = male, dog, plasma, po, 5 mg/kg, male beagle dogs, 5 mg/kg single oral dose, fasted (first dose)
[10] = male, dog, plasma, po, 12.5 mg/kg, beagle dogs, 12.5 mg/kg single oral dose

In the case of CNCC[C@H](Oc1cccc2c1OCO2)c1cccs1 [ammoxetine], the “F (absolute bioavailability) based on AUC(0-t)” value [1] is reported as 41.76 ± 9.25%, the “F (absolute bioavailability) based on AUC(0-∞)” value [1] is reported as 41.94 ± 9.31% and the trough concentration (beagle dogs, 5 mg/kg oral every 12 h, before the 4th dose) is reported as 84.17 ± 50.58 ng/mL. It also gave a trough concentration (beagle dogs, 5 mg/kg oral every 12 h, before the 5th dose) of 64.21 ± 31.71 ng/mL, a trough concentration (beagle dogs, 5 mg/kg oral every 12 h, before the 6th dose) of 86.13 ± 43.95 ng/mL and a trough concentration (beagle dogs, 5 mg/kg oral every 12 h, before the 7th dose) of 95.71 ± 39.83 ng/mL. The Cav [2] was 337.19 ± 112.27 ng/mL, the Cmin [2] was 95.71 ± 39.83 ng/mL and the “DF (degree of fluctuation)” value [2] was 2.00 ± 0.45. It also gave an AUC(0-inf) [3] of 5000 ng·h/mL, an AUC(0-t) [3] of 4900 ng·h/mL and an MRT last [3] of 5.76 ± 0.6 h. For the same molecule, the MRT inf [3] was 6.21 ± 0.73 h, the Tmax (dog, plasma, po, 5 mg/kg, beagle dogs, 5 mg/kg oral every 12 h, last time of multiple administrations, read-out: Tmax) was 1.1 ± 0.52 h and the half-life [3] was 4.13 ± 0.85 h. For the same molecule, the AUC (dog, plasma, beagle dogs, 5 mg/kg oral every 12 h, last time of multiple administrations) was 4050 ng·h/mL, the AUC(0-inf) [4] was 1660 ng·h/mL and the AUC(0-t) [4] was 1640 ng·h/mL. It also gave a Cmax [4] of 476 ± 284 ng/mL, a CL/F [4] of 71.5 mL/min/kg and an MRT last [4] of 3.74 ± 0.78 h. For the same molecule, the MRT inf [4] was 3.88 ± 0.83 h, the Tmax (female, dog, plasma, po, 5 mg/kg, female beagle dogs, 5 mg/kg oral, fasted, read-out: Tmax) was 0.85 ± 0.22 h and the Vd/F [4] was 20.9 ± 12.3 L/kg. It also gave a half-life [4] of 3.45 ± 0.4 h, an AUC(0-inf) [5] of 1010 ng·h/mL and an AUC(0-t) [5] of 1010 ng·h/mL. For the same molecule, the Cmax [5] was 649 ± 119 ng/mL, the MRT last [5] was 2.3 ± 0.29 h and the MRT inf [5] was 2.33 ± 0.29 h. The Tmax (male, dog, plasma, iv, 2 mg/kg, beagle dogs, 2 mg/kg intravenous administration, read-out: Tmax) was 0.05 ± 0.03 h, the half-life [5] was 2.72 ± 0.51 h and the AUC(0-inf) [6] was 420 ± 108 ng·h/mL. For the same molecule, the AUC(0-t) [6] was 418 ± 108 ng·h/mL, the Cmax [6] was 165 ± 49.5 ng/mL and the CL/F [6] was 83.5 mL/min/kg. For the same molecule, the MRT last [6] was 2.94 ± 0.55 h, the MRT inf [6] was 3.08 ± 0.69 h and the Tmax (male, dog, plasma, po, 2 mg/kg, beagle dogs, 2 mg/kg single oral dose, read-out: Tmax) was 0.75 ± 0.18 h. The Vd/F [6] was 24.9 ± 13 L/kg, the half-life [6] was 3.4 ± 1.28 h and the Cmax [7] was 761 ± 254 ng/mL. The CL/F [7] was 18.7 mL/min/kg, the Vd/F [7] was 6.63 ± 2.77 L/kg and the AUC(0-inf) [8] was 1960 ± 742 ng·h/mL. The AUC(0-t) [8] was 1950 ± 738 ng·h/mL, the Cmax [8] was 522 ± 234 ng/mL and the CL/F [8] was 49.3 mL/min/kg. For the same molecule, the MRT last [8] was 4.14 ± 0.54 h, the MRT inf [8] was 4.28 ± 0.59 h and the Tmax (male, dog, plasma, po, 5 mg/kg, beagle dogs, 5 mg/kg oral, fed (nonfasting), read-out: Tmax) was 0.8 ± 0.21 h. The Vd/F [8] was 14 ± 6.8 L/kg, the half-life [8] was 3.28 ± 0.28 h and the AUC(0-inf) [9] was 1980 ± 533 ng·h/mL. For the same molecule, the AUC(0-t) [9] was 1960 ± 527 ng·h/mL, the Cmax [9] was 524 ± 214 ng/mL and the CL/F [9] was 45.2 mL/min/kg. It also gave an MRT last [9] of 4.4 ± 0.65 h, an MRT inf [9] of 4.7 ± 0.85 h and a Tmax (male, dog, plasma, po, 5 mg/kg, male beagle dogs, 5 mg/kg single oral dose, fasted (first dose), read-out: Tmax) of 0.8 ± 0.11 h. The Vd/F [9] was 14.9 ± 5.08 L/kg, the half-life [9] was 3.81 ± 0.52 h and the AUC(0-inf) [10] was 8400 ng·h/mL. For the same molecule, the AUC(0-t) [10] was 7900 ng·h/mL, the Cmax [10] was 1470 ng/mL and the CL/F [10] was 25.8 mL/min/kg. The MRT last [10] was 5.43 ± 1.18 h, the MRT inf [10] was 7.53 ± 4.7 h and the Tmax (male, dog, plasma, po, 12.5 mg/kg, beagle dogs, 12.5 mg/kg single oral dose, read-out: Tmax) was 1.4 ± 0.6 h. It also gave a Vd/F [10] of 13.9 ± 11 L/kg, a half-life [10] of 6.2 ± 4.43 h and a Tmax (male, dog, plasma, po, 12.5 mg/kg, beagle dogs, oral 2, 5 and 12.5 mg/kg, read-out: Tmax values, range) of 0.75 to 1.4 h. It also gave a bioavailability (male, dog, plasma, oral, beagle dogs, 2 mg/kg, approximate value, read-out: absolute bioavailability) of about 42%, a clearance (male, dog, plasma, beagle dogs, 2 mg/kg intravenous administration, total clearance, read-out: CLz (converted)) of 34 mL/min/kg and a Vd (male, dog, plasma, beagle dogs, 2 mg/kg intravenous administration, volume of distribution, read-out: Vz) of 7.82 ± 1.2 L/kg.
